12 compounds from PubChem BioAssay (NCI) can be followed below.

Test systems include DU-145 prostate; HOP-62 NSCLC; NCI-H460 lung; OVCAR-8 ovarian; SF-268 CNS; SK-MEL-5 melanoma; SK-OV-3 ovarian; SNB-75 CNS; U251 CNS; UO-31 renal.
Holding throughout (assay): NCI-60 cell line screen, 48 h

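Results reflect a 48-hour exposure of cells in 96-well plates to compound at five concentrations. GI50 marks 50% less growth. TGI is the concentration that stops growth completely.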

As for `COc1ccc(/C=C2/CSCC3=C2NC(=S)NC3c2ccc(OC)c(OC)c2OC)c(OC)c1OC` (centres undefined), the TGI is greater than 100 µM in the test on DU-145 prostate; 47.9 µM in the test on HOP-62 NSCLC; greater than 100 µM with NCI-H460 lung; greater than 100 µM with OVCAR-8 ovarian; greater than 100 µM in the test with SF-268 CNS; 29.8 µM in the test with SK-MEL-5 melanoma. Moreover, the TGI in the test on SK-OV-3 ovarian, in the test on SNB-75 CNS and with U251 CNS was greater than 100 µM in each case.

Regarding `N#CC(N=Nc1ccccc1C(=O)O)C(N)=O` (centres undefined), the TGI with DU-145 prostate, in the test with HOP-62 NSCLC, with NCI-H460 lung, with SK-MEL-5 melanoma, in the test with SNB-75 CNS and with U251 CNS was greater than 100 µM each time. This compound also yielded a TGI with UO-31 renal greater than 100 µM.

For the compound `Oc1ccc([C@H]2c3c(O)cc(O)cc3C3c4c(cc(O)cc4[C@@H]2[C@H]2c4cc(O)cc5c4C(c4cc(O)cc(O)c4[C@@H]2c2ccc(O)cc2)[C@@H](c2ccc(O)cc2)O5)O[C@@H]3c2ccc(O)cc2)cc1` (some centres undefined), the TGI with DU-145 prostate, in the test on HOP-62 NSCLC, in the test with NCI-H460 lung, in the test on OVCAR-8 ovarian, in the test on SF-268 CNS and in the test on SK-MEL-5 melanoma was greater than 100 µM in each case. The TGI in the test on SNB-75 CNS and with U251 CNS was greater than 100 µM in each case.

Regarding `COc1cc(C2C3=C(COC3=O)Oc3cc4c(cc32)OCO4)ccc1O` (centres undefined), the TGI with DU-145 prostate is greater than 100 µM; in the test on HOP-62 NSCLC, greater than 100 µM; with NCI-H460 lung, greater than 100 µM; with OVCAR-8 ovarian it was 29.5 µM; with SF-268 CNS it was greater than 66.4 µM; in the test with SK-MEL-5 melanoma it was 0.736 µM. The results for the TGI in the test with SK-OV-3 ovarian, with SNB-75 CNS and in the test on U251 CNS were 0.932 µM, 0.652 µM and greater than 100 µM, respectively.

In the case of `CSC1(C)C(=O)Nc2c(OCc3ccccc3)cc([N+](=O)[O-])cc21` (centres undefined), the TGI in the test with DU-145 prostate is greater than 100 µM; with HOP-62 NSCLC, greater than 100 µM; in the test on NCI-H460 lung, greater than 100 µM; with OVCAR-8 ovarian, 55.1 µM; with SF-268 CNS, greater than 100 µM; in the test on SK-MEL-5 melanoma, greater than 100 µM. For the same compound, the figures for the TGI in the test with SK-OV-3 ovarian, in the test on SNB-75 CNS and in the test on U251 CNS were greater than 100 µM, 35.7 µM and 37.3 µM, respectively.

Regarding `C=CC(O)(CBr)CCC(Br)C(=C)C` (centres undefined), the TGI in the test on DU-145 prostate, with HOP-62 NSCLC, in the test with NCI-H460 lung, with OVCAR-8 ovarian, with SF-268 CNS and in the test with SK-MEL-5 melanoma was greater than 10 µM throughout. In addition, the TGI with SK-OV-3 ovarian, with SNB-75 CNS and with U251 CNS was greater than 10 µM in each case.

Turning to `COc1cc(C)c(/C=C2/N=C(c3ccccc3)OC2=O)c([N+](=O)[O-])c1OC`, the TGI with DU-145 prostate, in the test on HOP-62 NSCLC, with NCI-H460 lung, in the test with OVCAR-8 ovarian, in the test on SF-268 CNS and in the test on SK-OV-3 ovarian was greater than 100 µM throughout. Besides, the TGI in the test with SNB-75 CNS and in the test with U251 CNS was greater than 100 µM in each case.

With `COCCN(CCNC(=O)c1cccc2c(N)c3cccc(C)c3nc12)CCOC`, the TGI turned out to be 9.64 µM in the test on DU-145 prostate; 11.3 µM in the test on HOP-62 NSCLC; 7.11 µM in the test with NCI-H460 lung; 19 µM in the test with OVCAR-8 ovarian; 2.3 µM in the test with SF-268 CNS; 2.65 µM in the test with SK-MEL-5 melanoma. The TGI with SK-OV-3 ovarian is 42.1 µM; in the test on SNB-75 CNS it was 4.75 µM; in the test with U251 CNS, greater than 63.6 µM.

As to `Clc1cccc(-c2sc(-c3ccsc3)cc2Cc2ccsc2)c1`, the TGI with DU-145 prostate, in the test on HOP-62 NSCLC, with OVCAR-8 ovarian, in the test with SF-268 CNS, with SK-MEL-5 melanoma and in the test with SK-OV-3 ovarian was greater than 10 µM in each case. The compound also displayed a TGI in the test with SNB-75 CNS greater than 10 µM.

`COC(=O)C1CCN(C(=O)OC(C)(C)C)CC1`: the TGI in the test on DU-145 prostate, in the test with HOP-62 NSCLC, in the test on NCI-H460 lung, in the test with OVCAR-8 ovarian, with SF-268 CNS and in the test with SK-MEL-5 melanoma was greater than 100 µM in each case. Also, the TGI in the test with SNB-75 CNS, with U251 CNS and in the test on UO-31 renal was greater than 100 µM each time.

As to `OC1c2ccccc2CCC1CN1CCN(CCOC(c2ccc(F)cc2)c2ccc(F)cc2)CC1` (centres undefined), the TGI stood at 61.4 µM in the test with DU-145 prostate; 60.5 µM in the test on HOP-62 NSCLC; 48 µM in the test on NCI-H460 lung; 28.5 µM with OVCAR-8 ovarian; 39 µM in the test on SF-268 CNS; 16.5 µM in the test with SK-MEL-5 melanoma. The TGI in the test with SK-OV-3 ovarian is greater than 100 µM; in the test with SNB-75 CNS it was 70.5 µM; in the test on U251 CNS, 28.3 µM.

For the compound `COc1cc(OC)cc(-c2ccc(-c3ccc(C(=N)N)cn3)o2)c1`, the GI50 in the test with DU-145 prostate was 1.76 µM; with NCI-H460 lung, 1.63 µM; in the test on SF-268 CNS, 1.86 µM; with SK-MEL-5 melanoma, 1.6 µM; in the test with SK-OV-3 ovarian it was 1.91 µM; in the test with SNB-75 CNS, 1.48 µM. Further, the GI50 in the test with U251 CNS was 1.62 µM; with UO-31 renal it was 1.59 µM. The TGI in the test on DU-145 prostate amounted to 3.25 µM; in the test on NCI-H460 lung it was 3.16 µM; in the test on SF-268 CNS it was 3.62 µM; in the test with SK-MEL-5 melanoma, 2.97 µM; with SK-OV-3 ovarian it was 3.34 µM; with SNB-75 CNS it was 2.85 µM. In addition, the TGI in the test with U251 CNS was determined as 3.02 µM; in the test with UO-31 renal it was 3.06 µM.
